Test results taken from article PMC6522510 (Nature Communications, 2019).
Where two headings read alike, the source gives them in different places. Each block holds one molecule with its values, some of them ahead of it.

Legend:
MOLM-13 [1] = assay: Secondary dose-response HTS, Cell Titer Glo; type: cell-based, human; conditions: secondary high-throughput screen, MOLM-13; for EC50: read-out: average effective concentration, MOLM-13
MV4-11 [2] = assay: Secondary dose-response HTS, Cell Titer Glo; type: cell-based, human; conditions: secondary high-throughput screen, MV4-11; for EC50: read-out: average effective concentration, MV4-11
CHRF288-11 [3] = assay: Secondary dose-response HTS, Cell Titer Glo; type: cell-based, human; conditions: secondary high-throughput screen, CHRF288-11; for EC50: read-out: average effective concentration, CHRF288-11
CMK [4] = assay: Secondary dose-response HTS, Cell Titer Glo; type: cell-based, human; conditions: secondary high-throughput screen, CMK; for EC50: read-out: average effective concentration, CMK
CMS [5] = assay: Secondary dose-response HTS, Cell Titer Glo; type: cell-based, human; conditions: secondary high-throughput screen, CMS; for EC50: read-out: average effective concentration, CMS
ML2 = assay: Secondary dose-response HTS, Cell Titer Glo; type: cell-based, human; conditions: secondary high-throughput screen, ML-2; for EC50: read-out: average effective concentration, ML-2
U937 [6] = assay: Secondary dose-response HTS, Cell Titer Glo; type: cell-based, human; conditions: secondary high-throughput screen, U937; for EC50: read-out: average effective concentration, U937
MOLM-13 [7] = assay: cells; parameters: species or system AML cell lines (8); Secondary HTS, 10-point dose-response in triplicate, Cell Titer Glo viability, four-parameter fit EC50; conditions: Homo sapiens, MOLM-13, 72 h, read-out: MOLM-13
MV4-11 [8] = assay: cells; parameters: species or system AML cell lines (8); Secondary HTS, 10-point dose-response in triplicate, Cell Titer Glo viability, four-parameter fit EC50; conditions: Homo sapiens, MV4-11, 72 h, read-out: MV4-11
CMK [9] = assay: cells; parameters: species or system AML cell lines (8); Secondary HTS, 10-point dose-response in triplicate, Cell Titer Glo viability, four-parameter fit EC50; conditions: Homo sapiens, CMK, 72 h, read-out: CMK
CHRF288-11 [10] = assay: cells; parameters: species or system AML cell lines (8); Secondary HTS, 10-point dose-response in triplicate, Cell Titer Glo viability, four-parameter fit EC50; conditions: 72 h, read-out: CHRF288-11
CMS [11] = assay: cells; parameters: species or system AML cell lines (8); Secondary HTS, 10-point dose-response in triplicate, Cell Titer Glo viability, four-parameter fit EC50; conditions: 72 h, read-out: CMS
M07e = assay: cells; parameters: species or system AML cell lines (8); Secondary HTS, 10-point dose-response in triplicate, Cell Titer Glo viability, four-parameter fit EC50; conditions: M-07e, 72 h, read-out: M07e
U937 [12] = assay: cells; parameters: species or system AML cell lines (8); Secondary HTS, 10-point dose-response in triplicate, Cell Titer Glo viability, four-parameter fit EC50; conditions: Homo sapiens, U-937, 72 h, read-out: U937

SMILES: C[C@H](Oc1cc(-c2cnn(C3CCNCC3)c2)cnc1N)c1c(Cl)ccc(F)c1Cl [(S)-CRIZOTINIB]
EC50 (MOLM-13 [1]): 3.9 µM | EC50 (MV4-11 [2]): 3.9 µM | EC50 (CHRF288-11 [3]): 7.8 µM | EC50 (CMK [4]): 4.2 µM | EC50 (CMS [5]): 8.3 µM | EC50 (ML2): 5 µM | average effective concentration, U937 (U937 [6]): Inactive

SMILES: Cc1noc(-c2ccc(-c3ccc(CC(=O)O)cc3)cc2)c1NC(=O)O[C@H](C)c1ccccc1 [AM-095]
average effective concentration, MV4-11 (MV4-11 [2]): Inactive | average effective concentration, CHRF288-11 (CHRF288-11 [3]): Inactive | average effective concentration, CMK (CMK [4]): Inactive | average effective concentration, CMS (CMS [5]): Inactive | average effective concentration, ML-2 (ML2): Inactive | average effective concentration, U937 (U937 [6]): Inactive

SMILES: O=C(O)CC([S-])C(=O)O.[Au+] (stereo not shown) [AUROTHIOMALATE]
average effective concentration, MOLM-13 (MOLM-13 [1]): Inactive | average effective concentration, MV4-11 (MV4-11 [2]): Inactive | average effective concentration, CHRF288-11 (CHRF288-11 [3]): Inactive | average effective concentration, CMK (CMK [4]): Inactive | average effective concentration, CMS (CMS [5]): Inactive | average effective concentration, U937 (U937 [6]): Inactive

SMILES: Nc1nccc2c1ncn2C1C=C(CO)C(O)C1O (stereo not shown) [Compound 3-DEAZANEPLANOCIN]
average effective concentration, MV4-11 (MV4-11 [2]): Inactive | average effective concentration, CMS (CMS [5]): Inactive | average effective concentration, ML-2 (ML2): Inactive | average effective concentration, U937 (U937 [6]): Inactive

SMILES: Nc1nc(=O)n([C@H]2C[C@H](O)[C@@H](CO)O2)cc1F [Compound 5-FLUORODEOXYCYTIDINE]
average effective concentration, MV4-11 (MV4-11 [2]): Inactive | average effective concentration, CMS (CMS [5]): Inactive | average effective concentration, U937 (U937 [6]): Inactive

SMILES: Cc1nc(Nc2ncc(C(=O)Nc3c(C)cccc3Cl)s2)cc(N2CCN(CCO)CC2)n1 [DASATINIB]
EC50 (CHRF288-11 [3]; Homo sapiens, HTS): 8.4 µM | EC50 (ML2; Homo sapiens): > 10 µM | EC50 (MOLM-13 [7]): > 10 µM | EC50 (MV4-11 [8]): > 10 µM | EC50 (CMK [9]): > 10 µM | EC50 (CMS [11]): > 10 µM | EC50 (M07e): > 10 µM | EC50 (U937 [12]): > 10 µM

SMILES: O=c1oc2c(O)c(O)cc3c(=O)oc4c(O)c(O)cc1c4c23 [ELLAGIC ACID]
EC50 (MOLM-13 [1]; Homo sapiens): 0.8 µM | EC50 (ML2; Homo sapiens): 0.51 µM | EC50 (MV4-11 [8]): > 10 µM | EC50 (CHRF288-11 [10]): > 10 µM | EC50 (CMK [9]): > 10 µM | EC50 (CMS [11]): > 10 µM | EC50 (M07e): > 10 µM | EC50 (U937 [12]): > 10 µM

SMILES: C=C1C(=O)O[C@@H]2C[C@@]3(C)CCCC(=C)[C@@H]3C[C@H]12 [ISOHELENIN]
EC50 (MOLM-13 [1]): 5.9 µM | average effective concentration, MV4-11 (MV4-11 [2]): Inactive | EC50 (CHRF288-11 [3]): 6.7 µM | EC50 (CMK [4]): 5.2 µM | EC50 (CMS [5]): 5.4 µM | EC50 (ML2): 6.6 µM | EC50 (U937 [6]): 8.2 µM

SMILES: Cc1ccc(C(=O)Nc2ccc(Oc3cc4cnn(C)c4cc3-c3cn[nH]c3)c(F)c2)c(=O)n1-c1ccc(F)cc1 [LY2801653]
average effective concentration, MV4-11 (MV4-11 [2]): Inactive | average effective concentration, CHRF288-11 (CHRF288-11 [3]): Inactive | average effective concentration, CMK (CMK [4]): Inactive | average effective concentration, CMS (CMS [5]): Inactive | average effective concentration, ML-2 (ML2): Inactive | average effective concentration, U937 (U937 [6]): Inactive

SMILES: CC1CS(=O)(=O)CCN1/N=C/c1ccc([N+](=O)[O-])o1 (stereo not shown) [NIFURTIMOX]
EC50 (CMK [4]; Homo sapiens): 2.3 µM | EC50 (CMS [5]; Homo sapiens, HTS): 5 µM | EC50 (ML2; Homo sapiens): 8.5 µM | EC50 (U937 [6]; Homo sapiens, U-937): 2.7 µM

Continued, in another order:

EC50 (MOLM-13 [7]): > 10 µM | EC50 (MV4-11 [8]): > 10 µM
SMILES: CON(C)C(=O)N1N=C(c2cc(F)ccc2F)S[C@@]1(CCCN)c1ccccc1 [ARRY-520]
EC50 (CMK [9]): > 10 µM

EC50 (MV4-11 [2]; Homo sapiens): 0.001 µM | EC50 (MOLM-13 [7]): > 10 µM | EC50 (U937 [12]): > 10 µM
SMILES: CN[C@@H](C)C(=O)N[C@H]1CN(C(=O)CC(C)C)CC[C@H]2CC[C@@H](C(=O)NC(c3ccccc3)c3ccccc3)N2C1=O [AT-406]
EC50 (ML2; Homo sapiens): 6.6 µM | EC50 (CHRF288-11 [10]): > 10 µM | EC50 (CMK [9]): > 10 µM | EC50 (CMS [11]): > 10 µM | EC50 (M07e): > 10 µM
